Results reported in PubChem BioAssay AID1963425 (Molecular Pharmacology Branch, DTP, NCI, 2024).

System: 323965-272-R-J2-PDC complex spheroid growth, % test/control
Experiment: Anticancer human tumor 323965-272-R-J2-PDC patient-derived pancreatic carcinoma cell line growth inhibition [Asc]
Details: for IC50: curve of first compound; for viability, T/C: stronger effect = lower value; active = viability on the fitted dose curve at most 10% of control; inactive = the rest
In short: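 Tumor cells were grown as complex spheroids with human endothelial cells (HUVEC) and human mesenchymal stem cells as stroma. Agents were tested alone and in combination, in half-log steps down from the clinical Cmax, or from 10 microM where Cmax was unknown.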

[1] = second compound 0.0316 µM, first compound 0.0316 µM
[2] = second compound 0.0316 µM, first compound 0.1 µM
[3] = second compound 0.1 µM, first compound 0.0316 µM
[4] = second compound 0.1 µM, first compound 0.1 µM
[5] = second compound 0.316 µM, first compound 0.0316 µM
[6] = second compound 0.316 µM, first compound 0.1 µM
[7] = second compound 1 µM, first compound 0.0316 µM
[8] = second compound 1 µM, first compound 0.1 µM
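Note: compound exposure lasted 7 days starting three days after spheroid seeding.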
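Throughout, for viability, T/C: 100% = DMSO vehicle control wells with viability set relative to vehicle.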

Cn1ncnc1[C@H]1c2n[nH]c(=O)c3cc(F)cc(c23)N[C@@H]1c1ccc(F)cc1 + Cc1c(S(C)(=O)=O)c(-c2cc(F)cc(N3CCN(c4ccc(NS(=O)(=O)c5ccc(NC(CCN6CCC(C(=O)OCCCP(=O)(O)O)CC6)CSc6ccccc6)c(S(=O)(=O)C(F)(F)F)c5)cc4)CC3)c2)c(-c2ccc(Cl)cc2)n1C(C)C
inactive: viability, T/C (second compound 0.0316 µM, first compound 0.000316 µM) 105% | viability, T/C (second compound 0.0316 µM, first compound 0.001 µM) 92.2% | viability, T/C (second compound 0.0316 µM, first compound 0.00316 µM) 105% | viability, T/C (second compound 0.0316 µM, first compound 0.01 µM) 96.2% | viability, T/C [1] 95.3% | viability, T/C [2] 86.4% | viability, T/C (second compound 0.1 µM, first compound 0.000316 µM) 86.4% | viability, T/C (second compound 0.1 µM, first compound 0.001 µM) 102% | viability, T/C (second compound 0.1 µM, first compound 0.00316 µM) 97.9% | viability, T/C (second compound 0.1 µM, first compound 0.01 µM) 104% | viability, T/C [3] 95.4% | viability, T/C [4] 92.7% | viability, T/C (second compound 0.316 µM, first compound 0.000316 µM) 94.8% | viability, T/C (second compound 0.316 µM, first compound 0.001 µM) 99.7% | viability, T/C (second compound 0.316 µM, first compound 0.00316 µM) 100% | viability, T/C (second compound 0.316 µM, first compound 0.01 µM) 84.2% | viability, T/C [5] 96.7% | viability, T/C [6] 80.5% | viability, T/C (second compound 1 µM, first compound 0.000316 µM) 96.5% | viability, T/C (second compound 1 µM, first compound 0.001 µM) 89.3% | viability, T/C (second compound 1 µM, first compound 0.00316 µM) 88.8% | viability, T/C (second compound 1 µM, first compound 0.01 µM) 87.2% | viability, T/C [7] 84.3% | viability, T/C [8] 66.5% | viability, T/C (second compound 3.16 µM, first compound 0.000316 µM) 86.6% | viability, T/C (second compound 3.16 µM, first compound 0.001 µM) 76.2% | viability, T/C (second compound 3.16 µM, first compound 0.00316 µM) 80.3% | viability, T/C (second compound 3.16 µM, first compound 0.01 µM) 75.4% | viability, T/C (second compound 3.16 µM, first compound 0.0316 µM) 70% | viability, T/C (second compound 3.16 µM, first compound 0.1 µM) 64.5% | viability, T/C (second compound 10 µM, first compound 0.000316 µM) 81.5% | viability, T/C (second compound 10 µM, first compound 0.001 µM) 73.4% | viability, T/C (second compound 10 µM, first compound 0.00316 µM) 71.8% | viability, T/C (second compound 10 µM, first compound 0.01 µM) 69.1% | viability, T/C (second compound 10 µM, first compound 0.0316 µM) 71.1% | viability, T/C (second compound 10 µM, first compound 0.1 µM) 59.6%
> 100 nM: IC50 (second compound 0.0316 µM) | IC50 (second compound 0.1 µM) | IC50 (second compound 0.316 µM) | IC50 (second compound 1 µM) | IC50 (second compound 3.16 µM) | IC50 (second compound 10 µM)

C=CC(=O)N1CCN(c2nc(=O)n(-c3c(C)ccnc3C(C)C)c3nc(-c4c(O)cccc4F)c(F)cc23)C(C)C1 (stereo unspecified) + CNC(C)C(=O)NC1CN(S(=O)(=O)c2cccc(S(=O)(=O)N3CCC4CCC(C(=O)NC(c5ccccc5)c5ccccc5)N4C(=O)C(NC(=O)C(C)NC)C3)c2)CCC2CCC(C(=O)NC(c3ccccc3)c3ccccc3)N2C1=O
inactive: viability, T/C (second compound 0.00316 µM, first compound 0.0316 µM) 67.7% | viability, T/C (second compound 0.00316 µM, first compound 0.1 µM) 59.1% | viability, T/C (second compound 0.00316 µM, first compound 0.316 µM) 61.1% | viability, T/C (second compound 0.00316 µM, first compound 1 µM) 57.4% | viability, T/C (second compound 0.00316 µM, first compound 3.16 µM) 66.1% | viability, T/C (second compound 0.00316 µM, first compound 10 µM) 60.2% | viability, T/C (second compound 0.01 µM, first compound 0.0316 µM) 66.5% | viability, T/C (second compound 0.01 µM, first compound 0.1 µM) 70.6% | viability, T/C (second compound 0.01 µM, first compound 0.316 µM) 56.9% | viability, T/C (second compound 0.01 µM, first compound 1 µM) 69.8% | viability, T/C (second compound 0.01 µM, first compound 3.16 µM) 55.9% | viability, T/C (second compound 0.01 µM, first compound 10 µM) 70.3% | viability, T/C [1] 83.4% | viability, T/C [2] 67.7% | viability, T/C (second compound 0.0316 µM, first compound 0.316 µM) 62.4% | viability, T/C (second compound 0.0316 µM, first compound 1 µM) 60.6% | viability, T/C (second compound 0.0316 µM, first compound 3.16 µM) 62% | viability, T/C (second compound 0.0316 µM, first compound 10 µM) 67.2% | viability, T/C [3] 76.3% | viability, T/C [4] 60.5% | viability, T/C (second compound 0.1 µM, first compound 0.316 µM) 66.7% | viability, T/C (second compound 0.1 µM, first compound 1 µM) 58.8% | viability, T/C (second compound 0.1 µM, first compound 3.16 µM) 63.9% | viability, T/C (second compound 0.1 µM, first compound 10 µM) 61.3% | viability, T/C [5] 64.3% | viability, T/C [6] 65.8% | viability, T/C (second compound 0.316 µM, first compound 0.316 µM) 56.9% | viability, T/C (second compound 0.316 µM, first compound 1 µM) 54.9% | viability, T/C (second compound 0.316 µM, first compound 3.16 µM) 63.2% | viability, T/C (second compound 0.316 µM, first compound 10 µM) 64.3% | viability, T/C [7] 60.1% | viability, T/C [8] 61.1% | viability, T/C (second compound 1 µM, first compound 0.316 µM) 57.9% | viability, T/C (second compound 1 µM, first compound 1 µM) 60.3% | viability, T/C (second compound 1 µM, first compound 3.16 µM) 59% | viability, T/C (second compound 1 µM, first compound 10 µM) 56.6%
> 10000 nM: IC50 (second compound 0.00316 µM) | IC50 (second compound 0.01 µM) | IC50 (second compound 0.0316 µM) | IC50 (second compound 0.1 µM) | IC50 (second compound 0.316 µM) | IC50 (second compound 1 µM)

Cc1nc(N2CCC3(CC2)COC(C)C3N)c(CO)nc1Sc1ccnc(N)c1Cl (stereo unspecified) + CNC(C)C(=O)NC1CN(S(=O)(=O)c2cccc(S(=O)(=O)N3CCC4CCC(C(=O)NC(c5ccccc5)c5ccccc5)N4C(=O)C(NC(=O)C(C)NC)C3)c2)CCC2CCC(C(=O)NC(c3ccccc3)c3ccccc3)N2C1=O
1520 nM: IC50 (second compound 0.316 µM)
> 3000 nM: IC50 (second compound 0.01 µM) | IC50 (second compound 0.0316 µM)
1000 nM: IC50 (second compound 0.00316 µM)
967 nM: IC50 (second compound 1 µM)
1480 nM: IC50 (second compound 0.1 µM)
inactive: viability, T/C (second compound 0.00316 µM, first compound 0.00949 µM) 109% | viability, T/C (second compound 0.00316 µM, first compound 0.03 µM) 84.6% | viability, T/C (second compound 0.00316 µM, first compound 0.0949 µM) 71.8% | viability, T/C (second compound 0.00316 µM, first compound 0.3 µM) 55.7% | viability, T/C (second compound 0.00316 µM, first compound 0.949 µM) 52.4% | viability, T/C (second compound 0.00316 µM, first compound 3 µM) 43.9% | viability, T/C (second compound 0.01 µM, first compound 0.00949 µM) 99.4% | viability, T/C (second compound 0.01 µM, first compound 0.03 µM) 94.3% | viability, T/C (second compound 0.01 µM, first compound 0.0949 µM) 66% | viability, T/C (second compound 0.01 µM, first compound 0.3 µM) 62% | viability, T/C (second compound 0.01 µM, first compound 0.949 µM) 52.6% | viability, T/C (second compound 0.01 µM, first compound 3 µM) 47.7% | viability, T/C (second compound 0.0316 µM, first compound 0.00949 µM) 110% | viability, T/C (second compound 0.0316 µM, first compound 0.03 µM) 97.4% | viability, T/C (second compound 0.0316 µM, first compound 0.0949 µM) 80% | viability, T/C (second compound 0.0316 µM, first compound 0.3 µM) 58.1% | viability, T/C (second compound 0.0316 µM, first compound 0.949 µM) 57.9% | viability, T/C (second compound 0.0316 µM, first compound 3 µM) 49% | viability, T/C (second compound 0.1 µM, first compound 0.00949 µM) 93.9% | viability, T/C (second compound 0.1 µM, first compound 0.03 µM) 96.6% | viability, T/C (second compound 0.1 µM, first compound 0.0949 µM) 80.9% | viability, T/C (second compound 0.1 µM, first compound 0.3 µM) 65.6% | viability, T/C (second compound 0.1 µM, first compound 0.949 µM) 51.2% | viability, T/C (second compound 0.1 µM, first compound 3 µM) 47.4% | viability, T/C (second compound 0.316 µM, first compound 0.00949 µM) 97.7% | viability, T/C (second compound 0.316 µM, first compound 0.03 µM) 85% | viability, T/C (second compound 0.316 µM, first compound 0.0949 µM) 86.7% | viability, T/C (second compound 0.316 µM, first compound 0.3 µM) 60.5% | viability, T/C (second compound 0.316 µM, first compound 0.949 µM) 58.2% | viability, T/C (second compound 0.316 µM, first compound 3 µM) 42.3% | viability, T/C (second compound 1 µM, first compound 0.00949 µM) 84.8% | viability, T/C (second compound 1 µM, first compound 0.03 µM) 80.4% | viability, T/C (second compound 1 µM, first compound 0.0949 µM) 71.9% | viability, T/C (second compound 1 µM, first compound 0.3 µM) 62% | viability, T/C (second compound 1 µM, first compound 0.949 µM) 50.1% | viability, T/C (second compound 1 µM, first compound 3 µM) 39.8%
